# Data taken from the Kinase Knowledgebase extract (Sharma et al. 2016).
# Biological target: MAPK14;MAPK11;MAPK12;MAPK13 (human) (UniProt Q16539)
# Assay: Assessment of MAPK11/MAPK12/MAPK13/MAPK14 Kinase Activity
row,IC50 [nM],Structure (SMILES)
1,< 25,Cc1ccc(C(=O)NC2CC2)cc1-c1ccn2c(-c3c(C)cccc3F)nnc2c1
2,< 25,Cc1ccc(C(=O)NC2CC2)cc1-c1ccn2c(C3CCCC3)nnc2c1
3,< 25,Cc1c(F)cc(C(=O)NC2CC2)cc1-c1ccn2c(-c3ccccc3Cl)nnc2c1
4,< 25,Cc1ccc(C(=O)Nc2ccnn2C)cc1-c1ccn2c(-c3ccccc3F)nnc2c1
5,< 25,Cc1c(F)cc(C(=O)NC2CC2)cc1-c1ccn2c(C(C)(C)C)nnc2c1
6,< 25,Cc1cc(F)c(C(=O)NC2CC2)cc1-c1ccn2c(-c3ccccc3Cl)nnc2c1
7,< 25,Cc1ccc(C(=O)Nc2ccnn2C)cc1-c1ccn2c(-c3sccc3C)nnc2c1
8,< 25,Cc1ccc(C(=O)NC2CC2)cc1-c1ccn2c(C3(C(F)(F)F)CC3)nnc2c1
9,< 25,Cc1ccc(C(=O)NC2CC2)cc1-c1ccn2c(NC(C)C)nnc2c1
10,< 25,Cc1ccc(C(=O)NC2CC2)cc1-c1ccn2c(-c3sccc3Cl)nnc2c1
11,< 25,Cc1ccc(C(=O)NC2CC2)cc1-c1ccn2c(-c3ccccc3)nnc2c1
12,< 25,Cc1c(F)cc(C(=O)NC2CC2)cc1-c1ccn2c(-c3ccncc3Cl)nnc2c1
13,< 25,Cc1ccc(C(=O)NC2CC2)cc1-c1ccn2c(-c3ccncc3Cl)nnc2c1
14,< 25,Cc1ccc(C(=O)NC2CC2)cc1-c1ccn2c(-c3ccccc3C(F)(F)F)nnc2c1
15,< 25,Cc1ccc(C(=O)NC2CC2)cc1-c1ccn2c(-c3cc(F)ccc3Cl)nnc2c1
16,< 25,Cc1ccc(C(=O)Nc2ccnn2C)cc1-c1ccn2c(C(C)C)nnc2c1
17,< 25,Cc1ccc(C(=O)Nc2ccnn2C)cc1-c1cc2nnc(-c3ccccc3Cl)n2cc1C
18,< 25,Cc1ccc(C(=O)NC2CC2)cc1-c1ccn2c(CC(C)(C)C)nnc2c1
19,< 25,Cc1ccc(C(=O)NC2CC2)cc1-c1ccn2c(C3CC3)nnc2c1
20,< 25,Cc1c(F)cc(C(=O)NC2CC2)cc1-c1ccn2c(-c3c(F)cccc3F)nnc2c1
21,< 25,Cc1ccc(C(=O)Nc2ccnn2C)cc1-c1ccn2c(-c3ccc(F)cc3C)ncc2c1
22,< 25,Cc1ccc(C(=O)NC2CC2)cc1-c1ccn2c(C(C)(C)C)nnc2c1
23,< 25,Cc1ccc(C(=O)Nc2ccnn2C)cc1-c1ccn2c(-c3cc(F)c(F)cc3Cl)nnc2c1
24,< 25,Cc1ccc(C(=O)NC2CC2)cc1-c1ccn2c(Nc3ccccc3)nnc2c1

row,IC50 [nM],Structure (SMILES)
1,< 25,Cc1c(F)cc(C(=O)NC2CC2)cc1-c1ccn2c(-c3c(F)cccc3Cl)nnc2c1
2,< 25,Cc1ccc(C(=O)NC2CC2)cc1-c1ccn2c(-c3ccccc3Cl)nnc2c1
3,< 25,Cc1ccc(C(=O)NC2CC2)cc1-c1cc2nnc(-c3ccccc3Cl)n2cc1C
4,< 25,Cc1ccc(C(=O)Nc2ccnn2C)cc1-c1ccn2c(-c3ccc(F)cc3C)nnc2c1
5,< 25,Cc1ccc(C(=O)NC2CC2)cc1-c1ccn2c(-c3c(Cl)cccc3Cl)nnc2c1
6,< 25,Cc1ccc(C(=O)NC2CC2)cc1-c1ccn2c(-c3c(F)cccc3C(F)(F)F)nnc2c1
7,< 25,Cc1ccc(C(=O)NC2CC2)cc1-c1cc(C)n2c(-c3ccccc3Cl)nnc2c1
8,< 25,Cc1ccc(C(=O)Nc2ccnn2C)cc1-c1ccn2c(C3(C(F)(F)F)CC3)nnc2c1
9,< 25,Cc1c(F)cc(C(=O)Nc2ccon2)cc1-c1ccn2c(-c3c(F)cccc3F)nnc2c1
10,< 25,Cc1ccccc1-c1nnc2cc(-c3cc(C(=O)NC4CC4)cc(F)c3C)ccn12
11,< 25,Cc1ccc(C(=O)NC2CC2)cc1-c1ccn2c(-c3ccccc3C)nnc2c1
12,< 25,Cc1ccc(C(=O)NC2CC2)cc1-c1ccn2c(N(C)c3ccccc3)nnc2c1
13,< 25,Cc1ncoc1-c1nnc2cc(-c3cc(C(=O)NC4CC4)cc(F)c3C)ccn12
14,< 25,Cc1ccc(C(=O)Nc2ccnn2C)cc1-c1ccn2c(-c3ccc(F)cc3Cl)nnc2c1
15,< 25,Cc1ccc(C(=O)Nc2ccnn2C)cc1-c1ccn2c(-c3ccccc3Cl)ncc2c1
16,< 25,Cc1ccc(C(=O)NC2CC2)cc1-c1ccn2c(C34C[C@H]5C[C@@H](C3)C[C@@H](C4)C5)nnc2c1
17,< 25,Cc1ccc(C(=O)NC2CC2)cc1-c1ccn2c(Cc3ccccc3)nnc2c1
18,< 25,Cc1ccc(C(=O)NC2CC2)cc1-c1ccn2c(-c3cc(F)c(F)cc3Cl)nnc2c1
19,< 25,Cc1ccc(C(=O)NC2CC2)cc1-c1ccn2c(C3CCCCC3)nnc2c1
20,< 25,Cc1ccc(C(=O)NC2CC2)cc1-c1ccn2c(-c3c(C)cccc3Cl)nnc2c1
21,< 25,Cc1c(F)cc(C(=O)NC2CC2)cc1-c1ccn2c(-c3c(Cl)cccc3Cl)nnc2c1
22,< 25,Cc1ccc(C(=O)NC2CC2)cc1-c1ccn2c(-c3cccc(F)c3Cl)nnc2c1
23,< 25,Cc1ccc(C(=O)Nc2ccnn2C)cc1-c1ccn2c(-c3cc(F)cc(F)c3)ncc2c1
24,< 25,Cc1cccc(Cl)c1-c1nnc2cc(-c3cc(C(=O)NC4CC4)cc(F)c3C)ccn12

row,IC50 [nM],Structure (SMILES)
1,< 25,Cc1ccc(C(N)=O)cc1-c1ccn2c(-c3ccccc3Cl)nnc2c1
2,< 25,Cc1ccc(C(=O)Nc2ccnn2C)cc1-c1ccn2c(-c3cccc(F)c3Cl)nnc2c1
3,< 25,Cc1cccc(F)c1-c1nnc2cc(-c3cc(C(=O)NC4CC4)cc(F)c3C)ccn12
4,< 25,COc1ccccc1-c1nnc2cc(-c3cc(C(=O)NC4CC4)ccc3C)ccn12
5,< 25,Cc1ccc(C(=O)NC2CC2)cc1-c1ccn2c(-c3ccc(F)cc3Cl)nnc2c1
6,< 25,Cc1ccc(C(=O)NC2CC2)cc1-c1ccn2c(-c3ccc(F)cc3C)ncc2c1
7,< 25,Cc1ccc(C(=O)Nc2ccnn2C)cc1-c1ccn2c(-c3cc(F)ccc3Cl)nnc2c1
8,< 25,Cc1ccc(C(=O)NC2CC2)cc1-c1ccn2c(C3CCOCC3)nnc2c1
9,< 25,Cc1ccc(C(=O)Nc2ccnn2C)cc1-c1ccn2c(-c3ccccc3Cl)nnc2c1
10,< 25,Cc1ccc(C(=O)NC2(C)CC2)cc1-c1ccn2c(-c3ccccc3Cl)nnc2c1
11,< 25,Cc1ccc(C(=O)NC2CC2)cc1-c1ccn2c(-c3c(F)cccc3Cl)nnc2c1
12,< 25,Cc1c(F)cc(C(=O)NC2CC2)cc1-c1ccn2c(-c3ccccc3C(F)(F)F)nnc2c1
13,< 25,Cc1ccc(C(=O)NC2CC2)cc1-c1ccn2c(-c3sccc3C)nnc2c1
14,< 25,CCNC(=O)c1ccc(C)c(-c2ccn3c(-c4ccccc4Cl)nnc3c2)c1
15,< 25,Cc1ccc(C(=O)NC2CC2)cc1-c1ccn2c(-c3ccccc3F)nnc2c1
16,< 25,Cc1ccc(C(=O)NC2CC2)cc1-c1ccn2c(N3CCCC3)nnc2c1
17,< 25,Cc1ccc(C(=O)Nc2ccon2)cc1-c1ccn2c(-c3c(F)cccc3F)nnc2c1
18,< 25,Cc1ccc(C(=O)Nc2ccnn2C)cc1-c1ccn2c(-c3cnccc3C(F)(F)F)ncc2c1
19,< 25,Cc1ccc(C(=O)NC2CC2)cc1-c1ccn2c(-c3ccc(F)cc3C)nnc2c1
20,< 25,Cc1ccc(C(=O)NC2CC2)cc1-c1ccn2c(C(C)C)nnc2c1
21,< 25,Cc1ccc(C(=O)NC2CC2)cc1-c1ccn2c(N3CCCCC3)nnc2c1
22,< 25,Cc1ccc(C(=O)NC2CC2)cc1-c1ccn2c(-c3ccc(S(C)(=O)=O)cc3Cl)nnc2c1
23,< 25,CCc1ccccc1-c1nnc2cc(-c3cc(C(=O)NC4CC4)ccc3C)ccn12
